US9920383B2, “Active substances for increasing the stress defense in plants to abiotic stress, and methods of finding them” (Bayer Intellectual Property GMBH, priority 2005, dated 2018)

Tests used:
maize plants [1] = assay: Heat stress experiment with maize plants, seed dressing with active substance; assay type: in vivo, maize cv. Lorenzo
Source text: Maize seeds cv. Lorenzo were dressed as in example 1 with the compound 4-cyclopropylaminocarbonyl-N-(2-methoxybenzoyl)benzenesulfonamide (=VIII-3) or treated only with solvent without active substance. The seedlings were raised for 10 days in the controlled-environment chamber under defined conditions, likewise as described in example 1.2×10 pots with maize plants were used for the heat stress experiment. The control group consisted of undressed plants (solvent), the test group of plants which had been dressed with active substance. To apply the heat stress conditions, both plant groups were placed for 2 days into a controlled-environment cabinet at 45′C, white light, long day (16 hours fight, 8 hours dark) and 70% atmospheric humidity. To avoid desiccation as the result of the high temperature, the plants were irrigated once per day from below by raising the water level in a tray. After the heat stress, it was observed that—especially in the control group—the shoots of many plants had collapsed and that the leaves were lying flat on the ground.
The experiment was valued quantitatively, taking into consideration the following criteria.
After the heat treatment, the plants which had collapsed were counted and the result per pot was assessed:
Thereafter, all plants were grown on for 2 weeks under standard conditions. Then, the length increment of the individual plants was measured, and the survival rate of the plants per pot was determined: […]

maize plants [2] = assay: Chill stress experiment (field) with maize plants, seed dressing; assay type: in vivo, maize (dent com); conditions: for Chill damage [%]: number of plants with chill damage > 20% of the total number of plants in the test plot
Method: One control plant contains untreated seed. Approximately 8 days after the seed emerged, the seedlings were in the one-leaf stage and were exposed for 5 days to the following temperature conditions:
After this chill period, the test plots were scored. For this purpose, all plants were assessed individually, and plants with at least 20% chill symptoms based on the total leaf area (burns and/or chloroses) were considered to be damaged.

[3] = seeds dressed, after heat stress

Which results are given for `COc1ccccc1C(=O)NS(=O)(=O)c1ccc(C(=O)NC2CC2)cc1` [VIII-3, 4-cyclopropylaminocarbonyl-N-(2-methoxybenzoyl)benzenesulfonamide]?
Interim score (collapsed plants) (maize plants [1]; +S/+H: seeds dressed, heat stress 2 days 45° C, one symbol per pot (10 pots)): ◯◯◯◯◯◯◯◯◯◯; "standing" of the plants after heat stress (maize plants [1]; [3]): considerably better; survival rate compared with the control group (maize plants [1]; [3]): significantly higher; Chill damage [%] (maize plants [2]; dressed with 0.003 mg per seed): 12%; Chill damage [%] (maize plants [2]; dressed with 0.03 mg per seed): 12%; chill damage compared with control plot (maize plants [2]; test plots with dressing with active substance): significantly reduced; plants showing damage symptoms (maize plants [2]; test plots with dressing with active substance (both quantities)): approximately 12%
